According to article doi:10.1101/212043v1 (biorxiv, 2017):

How the values were obtained:
hsHDAC11 [1] = molecular target: T1, hsHDAC11 (Homo sapiens, UniProt Q96DB2); assay: HPLC deacylation assay, Abz fluorescence; assay type: biochemical; details: read-out: % inhibition at 100 μM
T1 sequence (Q96DB2 1-347): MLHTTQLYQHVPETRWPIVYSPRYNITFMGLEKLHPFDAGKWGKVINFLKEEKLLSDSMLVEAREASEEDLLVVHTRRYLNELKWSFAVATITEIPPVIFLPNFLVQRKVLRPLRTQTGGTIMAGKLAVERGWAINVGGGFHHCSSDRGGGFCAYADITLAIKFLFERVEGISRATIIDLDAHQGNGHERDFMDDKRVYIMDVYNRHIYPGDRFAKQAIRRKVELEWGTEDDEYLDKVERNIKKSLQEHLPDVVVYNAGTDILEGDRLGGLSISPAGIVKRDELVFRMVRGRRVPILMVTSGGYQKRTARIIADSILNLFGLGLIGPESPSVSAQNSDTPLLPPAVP

hsHDAC11 [2] = molecular target: T1, hsHDAC11; assay: HPLC deacylation assay, Abz fluorescence; assay type: biochemical; details: […] trifluoroacetylated peptide substrate, […] enzyme, […]°C; activator

Row | Structure (SMILES) | inhibition at 100 µM (hsHDAC11 [1]) [%] | fold stimulation at 100 μM (hsHDAC11 [2]) [fold]
1 | CCCCCCCCCCCCCCCC(=O)SCCNC(=O)CCNC(=O)[C@H](O)C(C)(C)COP(=O)(O)OP(=O)(O)OC[C@H]1O[C@@H](n2cnc3c(N)ncnc32)[C@H](O)[C@@H]1OP(=O)(O)O [palmitoyl-CoA] | > 70 | –
2 | CCCCCCCCCCCCCC(=O)SCCNC(=O)CCNC(=O)[C@H](O)C(C)(C)COP(=O)(O)OP(=O)(O)OC[C@H]1O[C@@H](n2cnc3c(N)ncnc32)[C@H](O)[C@@H]1OP(=O)(O)O [myristoyl-CoA] | – | 2.5
